The values below come from US20250049803A1, “COMBINATION OF A TASK1/3 CHANNEL BLOCKER WITH A NOREPINEPHRINE REUPTAKE INHIBITOR FOR THE TREATMENT OF SLEEP APNEA” (priority 2021, published 2025).

In data set [1] the test system is upper airway collapsibility. The experiment in a line: pig model of obstructive sleep apnea (OSA): collapse of the upper respiratory tract under negative pressure. The format is in vivo, German Landrace pigs. Also noted: efficacy of the dose on upper airway collapsibility: dose or concentration left out as unconfirmed. From the text: The therapeutic potential of the combination of a TASK1/3 channel blocker with a norepinephrine reuptake inhibitor according to the present invention in sleep apnea can be assessed preclinically in a pig model of obstructive sleep apnea (OSA).
German Landrace pigs are used for the model. The pigs are anaesthetized and tracheotomized. Two tracheal cannulas are inserted into the trachea, one into the rostral part and the other into the caudal part of the trachea. Using a connection piece, the rostral cannula is connected to a tube to the negative pressure device and to the distal tracheal cannula. The distal tracheal cannula is additionally connected to a tube with an open end to atmosphere via a connection piece that served for free tracheal breathing, circumventing the upper airway. By appropriate opening and clamping of those tubes breathing can be switched from nasal breathing to breathing through the caudal tracheal cannula, circumventing the upper airway, and the (isolated) upper airway can be connected to the negative pressure device, causing airflow in the inspiratory direction.
At certain points in time, the collapsibility of the upper respiratory tract is tested by having the pig breathe via the caudal cannula and applying negative pressures of −50, −100 and −150 cm water head (cm H2O) to the upper respiratory tract. This causes the upper respiratory tract to collapse, which manifests itself in an interruption of the airflow and a pressure drop in the tube system. This test is conducted prior to the administration of the test substance and at certain intervals after the administration of the test substance. An appropriately effective test substance can prevent this collapse of the respiratory tract in the inspiratory phase.

The nature of data set [2]: plasma concentrations of atomoxetine in the OSA pig model. Type of data set: in vivo, pigs. Conditions: atomoxetine dose used in the combination (i.v. bolus 20 μg/kg + infusion 12.5 μg/kg/h), FIG. 3.
Setting [3] is: atomoxetine i.v. bolus 20 μg/kg + infusion 12.5 μg/kg/h for four hours from 0 min, time 0 min (time of administration).
The mark [4] stands for this setting: atomoxetine i.v. bolus 20 μg/kg + infusion 12.5 μg/kg/h for four hours from 0 min, time 10 min.
The mark [5] stands for this setting: atomoxetine i.v. bolus 20 μg/kg + infusion 12.5 μg/kg/h for four hours from 0 min, time 30 min.
Setting [6] is: atomoxetine i.v. bolus 20 μg/kg + infusion 12.5 μg/kg/h for four hours from 0 min, time 60 min.
Setting [7] is: atomoxetine i.v. bolus 20 μg/kg + infusion 12.5 μg/kg/h for four hours from 0 min, time 90 min (time of nasal application of TASK1/3 channel blocker).
Where [8] appears, read: intranasal 0.3 μg at 0 min, alone, time 0 min (time of administration).
Setting [9] is: intranasal 0.3 μg at 0 min, alone, time 10 min.
The mark [10] stands for this setting: intranasal 0.3 μg at 0 min, alone, time 30 min.
The mark [11] stands for this setting: intranasal 0.3 μg at 0 min, alone, time 60 min.
Setting [12] is: intranasal 0.3 μg at 0 min, alone, time 90 min.

With `CNCC[C@@H](Oc1ccccc1C)c1ccccc1` [atomoxetine, Atomoxetine], the “inhibition of upper airway collapsibility” value in data set [1] (atomoxetine alone, i.v. bolus 20 μg/kg + infusion 12.5 μg/kg/h, 30 min after bolus injection and start of infusion) was “inhibited only at a negative pressure of −50 and −100 cm head”; in data set [1] (atomoxetine alone, i.v. bolus 20 μg/kg + infusion 12.5 μg/kg/h, 60 min after administration), “inhibited only at a negative pressure of −50 cm head”. The upper airway collapsibility entry in data set [1] (atomoxetine alone, i.v. bolus 20 μg/kg + infusion 12.5 μg/kg/h, 90 min after bolus injection and start of infusion) is on record as “induced at all negative pressures”. Besides, the “time points at which upper airway collapsibility was inhibited at all three negative pressures of −50, −100 and −150 cm head (cm H2O) in all pigs” value in data set [1] (atomoxetine alone, i.v. bolus 20 μg/kg followed by infusion 12.5 μg/kg/h for four hours) is reported as “at no time point”. In addition, the “Percent pigs without collaps −50 cm H2O, %” value turned out to be 0% in data set [1] (setting [3]); 67% in data set [1] (setting [4]); 100% in data set [1] (setting [5]); 100% in data set [1] (setting [6]); 0% in data set [1] (setting [7]). For the same molecule, the “Percent pigs without collaps −100 cm H2O, %” value in data set [1] (setting [3]) was 0%; in data set [1] (setting [4]) it was 0%; in data set [1] (setting [5]), 100%; in data set [1] (setting [6]), 0%; in data set [1] (setting [7]) it was 0%. The “Percent pigs without collaps −150 cm H2O, %” value in data set [1] (setting [3]), in data set [1] (setting [4]), in data set [1] (setting [5]), in data set [1] (setting [6]) and in data set [1] (setting [7]) was 0% throughout. Also, the plasma concentrations result in data set [2] is “about 100 nM”.

Regarding `COc1ccc(Cl)c(C(=O)N2C3CCC2CN(Cc2c(-c4ccc(C(C)C)cc4)nc4ncccn24)C3)n1` [(3-Chloro-6-methoxypyridin-2-yl)(3-{[2-(4-isopropylphenyl)imidazo[1,2-a]pyrimidin-3-yl]methyl}-3,8-diazabicyclo[3.2.1]oct-8-yl)methanone], the “efficacy of the dose on upper airway collapsibility” value in data set [1] (TASK1/TASK3 channel blocker alone) is “non effective dose”. Moreover, the “Percent pigs without collaps −50 cm H2O, %” value in data set [1] (setting [8]) is reported as 0%; in data set [1] (setting [9]), 33%; in data set [1] (setting [10]) it was 0%; in data set [1] (setting [11]), 0%; in data set [1] (setting [12]) it was 0%. For the same molecule, the “Percent pigs without collaps −100 cm H2O, %” value in data set [1] (setting [8]) is recorded as 0%; in data set [1] (setting [9]) it was 33%; in data set [1] (setting [10]), 0%; in data set [1] (setting [11]), 0%; in data set [1] (setting [12]), 0%. Moreover, the “Percent pigs without collaps −150 cm H2O, %” value in data set [1] (setting [8]), in data set [1] (setting [9]), in data set [1] (setting [10]), in data set [1] (setting [11]) and in data set [1] (setting [12]) was 0% each time.
